From the supplement of paper PMC10307832

Assays:
Test in all cases: relative viability (nuclei count vs DMSO), 5 days (fraction); higher = more cells survive
[1] = compound: CS(=O)(=O)CCNCc1ccc(-c2ccc3ncnc(Nc4ccc(OCc5cccc(F)c5)c(Cl)c4)c3c2)o1 [Lapatinib] + Nc1nc2[nH]cc(CCc3ccc(C(=O)N[C@@H](CCC(=O)O)C(=O)O)cc3)c2c(=O)[nH]1 [Pemetrexed] (partner 0.2 µM)
Summary of the method: (§1)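 Each reported value is a median over duplicate plates. It expresses relative viability: treated-well nuclei count divided by vehicle-well nuclei count. Lung cancer cell lines in 1536-well plates were dosed by pin tool a day after seeding, alone with one drug or with a fixed anchor-drug dose plus five library-drug doses (not always all listed) in √10 steps, and nuclei were counted after 5 days.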

[2] = compound: CC1=NC=CC(=C1)C2=CC=C(C=C2)CC(=O)NC3=CC=C(C=C3)C4=CN=CC=C4 [Wnt-C59] + CC(=O)c1c(C)c2cnc(Nc3ccc(N4CCNCC4)cn3)nc2n(C2CCCC2)c1=O [Palbociclib] (partner 0.5 µM)
Summary of the method: as §1

[3] = compound: CC1=NC=CC(=C1)C2=CC=C(C=C2)CC(=O)NC3=CC=C(C=C3)C4=CN=CC=C4 [Wnt-C59] + Cc1nc(Nc2ncc(C(=O)Nc3c(C)cccc3Cl)s2)cc(N2CCN(CCO)CC2)n1 [Dasatinib] (partner 0.075 µM)
Summary of the method: as §1

[4] = compound: CS(=O)(=O)CCNCc1ccc(-c2ccc3ncnc(Nc4ccc(OCc5cccc(F)c5)c(Cl)c4)c3c2)o1 [Lapatinib] + COc1cccc2cc(-c3nc([C@H]4CC[C@H](C(=O)O)CC4)n4ncnc(N)c34)[nH]c12 [OSI-027] (partner 0.5 µM)
Summary of the method: as §1

| Cell Line | relative viability ([1]; first compound 0.02 µM) | relative viability ([1]; first compound 0.06325 µM) | relative viability ([1]; first compound 0.2 µM) | relative viability ([1]; first compound 0.6325 µM) | relative viability ([1]; first compound 2 µM) | relative viability ([2]; first compound 0.001 µM) | relative viability ([2]; first compound 0.01 µM) | relative viability ([2]; first compound 0.03162 µM) | relative viability ([2]; first compound 0.1 µM) | relative viability ([3]; first compound 0.001 µM) | relative viability ([3]; first compound 0.01 µM) | relative viability ([3]; first compound 0.03162 µM) | relative viability ([3]; first compound 0.1 µM) | relative viability ([4]; first compound 0.02 µM) | relative viability ([4]; first compound 0.06325 µM) | relative viability ([4]; first compound 0.2 µM) | relative viability ([4]; first compound 0.6325 µM) | relative viability ([4]; first compound 2 µM) |
| --- | --- | --- | --- | --- | --- | --- | --- | --- | --- | --- | --- | --- | --- | --- | --- | --- | --- | --- |
| NCI-H1437 | 0.303 | 0.302 | 0.279 | 0.289 | 0.329 | 0.31 | 0.309 | 0.336 | 0.335 | 0.378 | 0.308 | 0.384 | 0.495 | 0.814 | 0.684 | 0.841 | 0.751 | 0.645 |
| NCI-H2170 | 0.272 | 0.249 | 0.271 | 0.274 | 0.198 | 0.393 | 0.397 | 0.416 | 0.367 | 0.549 | 0.354 | 0.601 | 0.555 | 0.459 | 0.459 | 0.64 | 0.41 | 0.245 |
| NCI-H1650 | 0.364 | 0.377 | 0.395 | 0.337 | 0.345 | 0.341 | 0.321 | 0.318 | 0.378 | 0.302 | 0.333 | 0.309 | 0.322 | 0.437 | 0.456 | 0.59 | 0.555 | 0.338 |
| LCLC-97TM1 | – | 0.128 | 0.184 | 0.168 | 0.176 | 0.254 | 0.228 | 0.216 | 0.248 | 0.764 | 0.75 | 0.772 | 0.889 | – | – | 0.564 | 0.497 | 0.503 |
| RERF-LC-KJ | 0.39 | 0.472 | 0.466 | 0.444 | 0.459 | 1.22 | 1.07 | 1.2 | 1.08 | 0.866 | 0.847 | 1.04 | 0.79 | 0.532 | 0.344 | 0.424 | 0.401 | 0.315 |
| HCC-827 | 0.26 | 0.263 | 0.285 | 0.239 | 0.202 | 0.499 | 0.524 | 0.492 | 0.511 | 0.386 | 0.305 | 0.366 | 0.428 | 0.54 | 0.7 | 0.691 | 0.71 | 0.661 |
| SK-LU-1 | 0.961 | 0.9 | 1.02 | 0.98 | 0.886 | 0.356 | 0.343 | 0.423 | 0.359 | 0.184 | 0.187 | 0.198 | 0.187 | 0.292 | 0.219 | 0.286 | 0.353 | 0.324 |
| NCI-H1944 | 0.619 | 0.493 | 0.551 | 0.523 | 0.41 | 0.343 | 0.328 | 0.334 | 0.339 | 0.24 | 0.218 | 0.195 | 0.179 | 0.28 | 0.237 | 0.356 | 0.361 | 0.31 |
| COR-L 105 | 1.09 | 1.16 | 0.953 | 0.68 | 0.619 | 0.362 | 0.373 | 0.379 | 0.438 | 0.275 | 0.357 | 0.308 | 0.304 | 0.638 | 0.362 | 0.449 | 0.413 | 0.269 |
| HARA | 0.222 | 0.225 | 0.274 | 0.277 | 0.224 | 0.27 | 0.231 | 0.325 | 0.22 | 0.249 | 0.208 | 0.293 | 0.32 | – | 0.214 | 0.474 | 0.328 | 0.239 |
| NCI-H460 | 0.0637 | 0.0621 | 0.0581 | 0.0692 | 0.0618 | 0.185 | 0.145 | 0.207 | 0.147 | 0.482 | 0.483 | 0.524 | 0.531 | 0.544 | 0.438 | 0.481 | 0.533 | 0.477 |
| NCI-H358 | 0.173 | 0.157 | 0.16 | 0.167 | 0.189 | 0.134 | 0.128 | 0.153 | 0.1 | 0.177 | 0.154 | 0.145 | 0.152 | 0.567 | 0.285 | 0.439 | 0.285 | 0.215 |
| SW 1573 | – | 0.716 | 0.883 | 0.882 | 0.759 | 0.413 | 0.368 | 0.466 | 0.408 | 0.557 | 0.699 | 0.67 | 0.314 | 0.626 | 0.379 | 0.612 | 0.735 | 0.635 |
| NCI-H2228 | 0.338 | 0.34 | 0.312 | 0.272 | 0.331 | 1.06 | 0.633 | 0.884 | 0.869 | 0.503 | 0.429 | 0.615 | 0.524 | 0.395 | 0.36 | 0.482 | 0.568 | 0.478 |
| HCC-366 | – | 0.239 | 0.187 | 0.149 | 0.118 | 0.461 | 0.376 | 0.402 | 0.386 | 0.678 | 0.621 | 0.594 | 0.487 | – | 0.58 | 0.838 | 0.859 | 0.373 |
| NCI-H520 | 0.741 | 0.636 | 0.604 | 0.712 | 0.489 | 0.244 | 0.208 | 0.239 | 0.222 | 0.217 | 0.189 | 0.208 | 0.174 | 0.276 | 0.181 | 0.321 | 0.266 | 0.232 |
| NCI-H2023 | – | 0.182 | 0.233 | 0.193 | 0.186 | 0.389 | 0.4 | 0.399 | 0.371 | 0.563 | 0.538 | 0.628 | 0.333 | 0.379 | – | 0.337 | 0.382 | 0.177 |
